Test results from patent publication US20040224844A1, “Use of hydroxyaromatic compounds as safeners” (Bayer CropScience GmbH, priority 2003, published 2004).

Legend:
Assay type in all cases: in vivo
[1] = test system: Zea mays (corn), cv. 'Lorenzo'; assay: Pre-emergence application of herbicide and safener by the tank mix method: crop damage
Protocol: (§1) Seeds of various crop plants and weed species were sown in sandy loam soil in plastic pots of a diameter of 13 cm and covered with a layer of sandy loam of a thickness of about 1 cm. Herbicides and safeners in the form of liquid (for example emulsion concentrates) or dry (for example water-dispersible powders) formulations were diluted with deionized water to the required concentration and applied to the surface of the soil with a spray bar using a water application rate of 300 liters per hectare. In the experiment shown below, the safeners were used as 20 percent strength water-dispersible powders and the herbicide isoxaflutole was used as an aqueous suspension concentrate (see table 1.1.1).
(§2) The pots were placed in a greenhouse under favorable growth conditions. Visual scoring of the herbicidal action was carried out four weeks after the herbicide application. Evaluation was carried out on a percentage basis by comparison with untreated control plants (0%=no noticeable effect compared with the untreated plant, 100%=treated plant dies).

Setaria viridis [2] = assay: Pre-emergence application of herbicide and safener by the tank mix method: herbicidal action; settings: four weeks
Protocol: as §1, §2

Chenopodium album = assay: as above; settings: four weeks
Protocol: as §1, §2

[3] = test system: Zea mays (corn), cv. 'Lorenzo'; assay: Post-emergence application of herbicide and safener by the tank mix method: crop damage; settings: for Safener action as % damage reduction in crop plants: ZEAMA
Excerpt: (§3) Seeds of various crop plants and weed species were sown in sandy loam soil in round plastic pots of a diameter of 13 cm and covered with a layer of sandy loam of a thickness of about 1 cm. The pots were placed in a greenhouse under favorable growth conditions for a period of about two to three weeks, allowing the plants to reach a growth stage of 2 to 4 leaves. The herbicides in the form of liquid (for example emulsion concentrates) or dry (for example water-dispersible powders) formulations were mixed with a standard additive (based on rapeseed oil methyl ester), diluted with deionized water to the required concentrations and applied to the green parts of the plants and the uncovered part of the soil surface with a spray bar using a water application rate of 300 liters per hectare. In the experiment shown below, safener and the herbicide foramsulfuron were in each case used as 20 percent strength water-dispersible powder (results see table 1.2.1).
as §2

Setaria viridis [4] = assay: Post-emergence application of herbicide and safener by the tank mix method: herbicidal action; settings: four weeks
Excerpt: as §3, §2

Amaranthus retroflexus = assay: as above; settings: four weeks
Excerpt: as §3, §2

[5] = test system: Zea mays (corn), cv. 'Lorenzo'; assay: Pre-emergence application of herbicide after seed dressing with safener; settings: for Safener action as % damage reduction in crop plants: ZEAMA
Protocol: (§4) The number of crop plant seeds required for each application rate of safener was calculated. Sufficient seeds were weighed out into glass bottles having a screw-on lid. The volume of the glass bottles was approximately twice that of the seeds weighed out.
(§5) The safeners were formulated as 20 percent strength water-dispersible powders. These formulations were weighed out to give the required application rates (g of a.i./kg of seed). The samples were added to the seeds in the glass containers, and sufficient water to form a suitable seed dressing was then added. The glass bottles were closed and then mounted in an overhead shaker (which turns the bottles at moderate speed for a period of up to one hour) so that the seeds were uniformly covered with the seed dressing. The bottles were opened and the seeds were ready for use in pre-emergence or post-emergence experiments, as described below.
(§6) The seeds which had been treated with safeners and untreated seeds as controls were sown in sandy loam soil in round plastic pots of a diameter of 13 cm and covered with a layer of sandy loam of a thickness of about 1 cm. The herbicides in the form of liquid (for example emulsion concentrates) or dry (for example water-dispersible powders) formulations were diluted with deionized water to the required concentrations and applied to the surface of the soil with a spray bar using a water application rate of 300 liters per hectare. In the two experiments shown below (results see tables 2.2.1 and 2.2.2), the herbicide isoxaflutole was used as an aqueous suspension concentrate.
as §2

[6] = test system: Glycine max (soybean), cv. 'Lambert'; assay: as above; settings: for Safener action as % damage reduction in crop plants: GLXMA
Protocol: as §4, §5, §6, §2

[7] = test system: Zea mays (corn), cv. 'Lorenzo'; assay: Post-emergence application of herbicide after seed dressing with safener; settings: for Safener action as % damage reduction in crop plants: ZEAMA
Protocol: as §4, §5
as §3, with “The seeds treated with safener” for “Seeds of various crop plants”, “untreated seeds” for “weed species”, “2.3.1).” for “1.2.1).”
The pots were placed in a greenhouse under favorable growth conditions. Visual scoring of the herbicidal action was carried out four weeks after the herbicide application. Evaluation was carried out on a percentage base by comparison with untreated control plants (0%=no noticeable effect compared with the untreated plant, 100%=treated plant dies).

[8] = safener 250 g of a.i./ha + herbicide H1 (isoxaflutole) 100 g of a.i./ha, pre-emergence tank mix
[9] = safener 250 g of a.i./ha + herbicide H2 (foramsulfuron) 40 g of a.i./ha, post-emergence tank mix
[10] = seed dressing with safener 1 g of a.i./kg of seed, herbicide H1 (isoxaflutole) 100 g of a.i./ha pre-emergence
[11] = seed dressing with safener 1 g of a.i./kg of seed, herbicide H2 (foramsulfuron) 40 g of a.i./ha post-emergence
[12] = seed dressing with safener 1 g of a.i./kg of seed, herbicide H1 (isoxaflutole) 100 g of a.i./ha pre-emergence, four weeks
[13] = herbicide H1 (isoxaflutole) 100 g of a.i./ha alone, no safener, pre-emergence
[14] = herbicide H2 (foramsulfuron) 40 g of a.i./ha alone, no safener, post-emergence

Structure (SMILES)	Safener action as % damage reduction in ZEAMA [1, 8]	Herbicidal action in SETVI (in %) (Setaria viridis [2]; [8])	Herbicidal action in CHEAL (in %) (Chenopodium album; [8])	Safener action as % damage reduction in crop plants [3, 9]	Herbicidal action as % damage in SETVI (Setaria viridis [4]; [9])	Herbicidal action as % damage in AMARE (Amaranthus retroflexus; [9])	Safener action as % damage reduction in crop plants [5, 10]	% damage in ZEAMA ([5]; in vivo)	Safener action as % damage reduction in crop plants [6, 10]	% damage in GLXMA ([6]; in vivo)	Safener action as % damage reduction in crop plants [7, 11]	% damage in ZEAMA ([7]; in vivo)	other results
O=C(O)c1cc(O)cc(O)c1 [Comp. 1050, 3,5-dihydroxybenzoic acid]	88%	96%	97%	69%	97%	90%	75%	5%	64%	28%	86%	5%	–
COc1cc(C(=O)O)cc(OC)c1O [Comp. 1272, 3,5-dimethoxy-4-hydroxybenzoic acid]	52%	98%	94%	53%	95%	92%	50%	–	55%	–	79%	–	% damage in ZEAMA ([1]; safener 250 g of a.i./ha + herbicide H1 (isoxaflutole) 100 g of a.i./ha, pre-emergence tank mix, visual scoring four weeks after application): 12%; % damage in ZEAMA ([3]; safener 250 g of a.i./ha + herbicide H2 (foramsulfuron) 40 g of a.i./ha, post-emergence tank mix, visual scoring four weeks after application): 15%; % damage in ZEAMA [5, 12]: 10%; % damage in GLXMA [6, 12]: 35%; % damage in ZEAMA ([7]; seed dressing with safener 1 g of a.i./kg of seed, herbicide H2 (foramsulfuron) 40 g of a.i./ha post-emergence, four weeks): 7.5%
CS(=O)(=O)c1cc(C(F)(F)F)ccc1C(=O)c1cnoc1C1CC1 [Herbicide H1, isoxaflutole, reference compound]	–	–	–	–	–	–	–	20%	–	78%	–	–	% damage in ZEAMA ([1]; in vivo): 25%; Herbicidal action in SETVI (in %) (Setaria viridis [2]; [13]): 96%; Herbicidal action in CHEAL (in %) (Chenopodium album; [13]): 94%
COc1cc(OC)nc(NC(=O)NS(=O)(=O)c2cc(NC=O)ccc2C(=O)N(C)C)n1 [Herbicide H2, foramsulfuron, reference compound]	–	–	–	–	–	–	–	–	–	–	–	35%	% damage in ZEAMA ([3]; in vivo): 32%; Herbicidal action as % damage in SETVI (Setaria viridis [4]; [14]): 93%; Herbicidal action as % damage in AMARE (Amaranthus retroflexus; [14]): 90%
